*1 amine or outer side, *2 acyl side, *3 side chain or, on linkers, in order; H or OH if unused. Where a SMILES comes first, the peptide text is derived from it. Bridges are numbered along the chain shown (N, C = ends). [ ]: non-standard residue; d: D form. The star is where a group is joined. hPhe(3-Cl-4-CF3) = N[C@@H](CCc1ccc(C(F)(F)F)c(Cl)c1)C(=O)O; NPrPhe(4-CF3) = CCCN[C@@H](Cc1ccc(C(F)(F)F)cc1)C(=O)O; NEtAsp = CCN([C@@H](CC(=O)[*:3])C(=O)[*:2])[*:1]; NMeGly(cPent) = CN[C@H](C(=O)O)C1CCCC1; Ac4c(3,3-Me2) = CC1(C)CC(N)(C(=O)O)C1; NMeNva(3-Et) = CCC(CC)[C@H](NC)C(=O)O; NEtLeu = CCN[C@@H](CC(C)C)C(=O)O; NMeD = CN[C@@H](CC(=O)O)C(=O)O; NMeL = CN[C@@H](CC(C)C)C(=O)O; Morpholide = C1CN(*)CCO1; NMeA = CN[C@@H](C)C(=O)O; Ac5c = NC1(C(=O)O)CCCC1; Aze = O=C(O)[C@@H]1CCN1; Ac4c = NC1(C(=O)O)CCC1; NEtG = CCNCC(=O)O; Sar = CNCC(=O)O; Propyl = CCC*
Key:
[1] = biological target: GDP-bound HRAS wild-type protein (Homo sapiens, UniProt P01112); assay: Binding to HRAS by surface plasmon resonance (SPR), Single Cycle Kinetics; settings: KD ratio, GDP-bound HRAS wild-type vs GDP-bound KRAS wild-type, SPR
[2] = biological target: GDP-bound NRAS wild-type protein (Homo sapiens, UniProt P01111); assay: Binding to NRAS by surface plasmon resonance (SPR), Single Cycle Kinetics; settings: KD ratio, GDP-bound NRAS wild-type vs GDP-bound KRAS wild-type, SPR
Chain of GDP-bound NRAS wild-type protein (P01111 whole entry): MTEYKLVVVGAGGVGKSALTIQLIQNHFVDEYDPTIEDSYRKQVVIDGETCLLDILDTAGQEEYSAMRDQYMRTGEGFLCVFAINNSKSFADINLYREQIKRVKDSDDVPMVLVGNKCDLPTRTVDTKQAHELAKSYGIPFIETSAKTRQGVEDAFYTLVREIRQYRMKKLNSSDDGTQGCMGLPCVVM

Chain of GDP-bound HRAS wild-type protein (P01112 whole entry): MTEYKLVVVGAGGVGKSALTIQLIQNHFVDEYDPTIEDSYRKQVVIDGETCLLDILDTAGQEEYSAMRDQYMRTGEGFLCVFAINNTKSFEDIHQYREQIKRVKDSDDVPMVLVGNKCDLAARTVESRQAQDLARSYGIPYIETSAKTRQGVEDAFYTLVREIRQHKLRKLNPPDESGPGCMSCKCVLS

Structure (SMILES) | HRAS/KRAS (ratio of KD value for HRAS to KD value for KRAS) [1] | NRAS/KRAS (ratio of KD value for NRAS to KD value for KRAS) [2]
CCCN1C(=O)[C@@H]2CCN2C(=O)[C@H](C)N(C)C(=O)[C@H]([C@@H](C)CC)NC(=O)[C@H](CC(C)C)N(C)C(=O)C[C@@H](C(=O)N(C)C)N(C)C(=O)[C@H](C(CC)CC)N(C)C(=O)C2(CCC2)NC(=O)[C@@H]2CCCN2C(=O)[C@H](CCc2ccc(C(F)(F)F)c(Cl)c2)NC(=O)CN(C)C(=O)[C@@H]1Cc1ccc(C(F)(F)F)cc1 [PP1961] ([NMeL]I[NMeA][Aze][NPrPhe(4-CF3)][Sar][hPhe(3-Cl-4-CF3)]P[Ac4c][NMeNva(3-Et)][NMeD]-NMe2; lactam N-11) | C (A compound having a KD ratio of 0.1 or more and less than 3 is denoted as C) | C (A compound having a KD ratio of 0.1 or more and less than 3 is denoted as C)
CCCN1C(=O)CN(C)C(=O)CN(C)C(=O)[C@H]([C@@H](C)OC)NC(=O)[C@H](CC(C)C)N(C)C(=O)C[C@@H](C(=O)N2CCOCC2)N(C)C(=O)[C@H](C2CCCC2)N(C)C(=O)C2(CC(C)(C)C2)NC(=O)[C@@H]2CCCN2C(=O)[C@H](CCc2ccc(C(F)(F)F)c(Cl)c2)NC(=O)CN(C)C(=O)[C@@H]1Cc1ccc(C(F)(F)F)cc1 [PP1963] ([NMeL]T(Me)[Sar][Sar][NPrPhe(4-CF3)][Sar][hPhe(3-Cl-4-CF3)]P[Ac4c(3,3-Me2)][NMeGly(cPent)][NMeD]-Morpholide; lactam N-11) | C (A compound having a KD ratio of 0.1 or more and less than 3 is denoted as C) | B (a compound having 3 or more and less than 10 is denoted as B)
CCCN1C(=O)CN(C)C(=O)CN(C)C(=O)[C@H]([C@@H](C)OCC)NC(=O)[C@H](CC(C)C)N(C)C(=O)C[C@@H](C(=O)N2CCOCC2)N(C)C(=O)[C@H](C2CCCC2)N(C)C(=O)C2(CC(C)(C)C2)NC(=O)[C@@H]2CCCN2C(=O)[C@H](CCc2ccc(C(F)(F)F)c(Cl)c2)NC(=O)CN(C)C(=O)[C@@H]1Cc1ccc(C(F)(F)F)cc1 [PP1964] ([NMeL]T(Et)[Sar][Sar][NPrPhe(4-CF3)][Sar][hPhe(3-Cl-4-CF3)]P[Ac4c(3,3-Me2)][NMeGly(cPent)][NMeD]-Morpholide; lactam N-11) | B (a compound having 3 or more and less than 10 is denoted as B) | B (a compound having 3 or more and less than 10 is denoted as B)
CCCO[C@H](C)[C@@H]1NC(=O)[C@H](CC(C)C)N(C)C(=O)C[C@@H](C(=O)N2CCOCC2)N(C)C(=O)[C@H](C2CCCC2)N(C)C(=O)C2(CC(C)(C)C2)NC(=O)[C@@H]2CCCN2C(=O)[C@H](CCc2ccc(C(F)(F)F)c(Cl)c2)NC(=O)CN(C)C(=O)[C@H](Cc2ccc(C(F)(F)F)cc2)N(CCC)C(=O)CN(C)C(=O)CN(C)C1=O [PP1965] ([NMeL]T(Propyl)[Sar][Sar][NPrPhe(4-CF3)][Sar][hPhe(3-Cl-4-CF3)]P[Ac4c(3,3-Me2)][NMeGly(cPent)][NMeD]-Morpholide; lactam N-11) | B (a compound having 3 or more and less than 10 is denoted as B) | B (a compound having 3 or more and less than 10 is denoted as B)
CCCN1C(=O)CN(C)C(=O)CNC(=O)[C@H]([C@@H](C)CC)NC(=O)[C@H](CC(C)C)N(CC)C(=O)C[C@@H](C(=O)N2CCOCC2)N(C)C(=O)[C@H](C2CCCC2)N(C)C(=O)C2(CCCC2)NC(=O)[C@@H]2CCCN2C(=O)[C@H](CCc2ccc(C(F)(F)F)c(Cl)c2)NC(=O)CN(C)C(=O)[C@@H]1Cc1ccc(C(F)(F)F)cc1 [PP1967] ([NEtLeu]IG[Sar][NPrPhe(4-CF3)][Sar][hPhe(3-Cl-4-CF3)]P[Ac5c][NMeGly(cPent)][NMeD]-Morpholide; lactam N-11) | B (a compound having 3 or more and less than 10 is denoted as B) | B (a compound having 3 or more and less than 10 is denoted as B)
CCCN1C(=O)CN(CC)C(=O)CNC(=O)[C@H]([C@@H](C)CC)NC(=O)[C@H](CC(C)C)N(C)C(=O)C[C@@H](C(=O)N2CCOCC2)N(C)C(=O)[C@H](C2CCCC2)N(C)C(=O)C2(CCCC2)NC(=O)[C@@H]2CCCN2C(=O)[C@H](CCc2ccc(C(F)(F)F)c(Cl)c2)NC(=O)CN(C)C(=O)[C@@H]1Cc1ccc(C(F)(F)F)cc1 [PP1968] ([NMeL]IG[NEtG][NPrPhe(4-CF3)][Sar][hPhe(3-Cl-4-CF3)]P[Ac5c][NMeGly(cPent)][NMeD]-Morpholide; lactam N-11) | C (A compound having a KD ratio of 0.1 or more and less than 3 is denoted as C) | C (A compound having a KD ratio of 0.1 or more and less than 3 is denoted as C)
CCCN1C(=O)CN(C)C(=O)CNC(=O)[C@H]([C@@H](C)CC)NC(=O)[C@H](CC(C)C)N(C)C(=O)C[C@@H](C(=O)N2CCOCC2)N(C)C(=O)[C@H](C2CCCC2)N(C)C(=O)C2(CCCC2)NC(=O)[C@@H]2CCCN2C(=O)[C@H](CCc2ccc(C(F)(F)F)c(Cl)c2)NC(=O)CN(CC)C(=O)[C@@H]1Cc1ccc(C(F)(F)F)cc1 [PP1969] ([NMeL]IG[Sar][NPrPhe(4-CF3)][NEtG][hPhe(3-Cl-4-CF3)]P[Ac5c][NMeGly(cPent)][NMeD]-Morpholide; lactam N-11) | C (A compound having a KD ratio of 0.1 or more and less than 3 is denoted as C) | B (a compound having 3 or more and less than 10 is denoted as B)
CCCN1C(=O)CN(C)C(=O)CNC(=O)[C@H]([C@@H](C)CC)NC(=O)[C@H](CC(C)C)N(C)C(=O)C[C@@H](C(=O)N2CCOCC2)N(CC)C(=O)[C@H](C2CCCC2)N(C)C(=O)C2(CCCC2)NC(=O)[C@@H]2CCCN2C(=O)[C@H](CCc2ccc(C(F)(F)F)c(Cl)c2)NC(=O)CN(C)C(=O)[C@@H]1Cc1ccc(C(F)(F)F)cc1 [PP1970] ([NMeL]IG[Sar][NPrPhe(4-CF3)][Sar][hPhe(3-Cl-4-CF3)]P[Ac5c][NMeGly(cPent)][NEtAsp]-Morpholide; lactam N-11) | B (a compound having 3 or more and less than 10 is denoted as B) | B (a compound having 3 or more and less than 10 is denoted as B)
CCCN1C(=O)CN(C)C(=O)[C@H](C)NC(=O)[C@H]([C@@H](C)CC)NC(=O)[C@H](CC(C)C)N(C)C(=O)C[C@@H](C(=O)N2CCOCC2)N(C)C(=O)[C@H](C2CCCC2)N(C)C(=O)C2(CCCC2)NC(=O)[C@@H]2CCCN2C(=O)[C@H](CCc2ccc(C(F)(F)F)c(Cl)c2)NC(=O)CN(C)C(=O)[C@@H]1Cc1ccc(C(F)(F)F)cc1 [PP1971] ([NMeL]IA[Sar][NPrPhe(4-CF3)][Sar][hPhe(3-Cl-4-CF3)]P[Ac5c][NMeGly(cPent)][NMeD]-Morpholide; lactam N-11) | B (a compound having 3 or more and less than 10 is denoted as B) | B (a compound having 3 or more and less than 10 is denoted as B)
